Source: US20250296959A1, “B7-H3 TARGETING PEPTIDES AND CONSTRUCTS THEREOF” (Mariana Oncology Inc., priority 2024, published 2025)
Where two headings read alike, the source gives them in different places. Starred links: 1 amine or outer side, 2 acyl side, 3 side chain; linkers in the order of their positions; H or OH if unused. Positions of bridges follow the written chain, without caps; N, C: chain ends. Non-standard residues stand in square brackets, D forms with d. Residues, ends and D or L forms follow the SMILES beside them. Groups on a side chain read outwards from the residue. *: point of attachment. X4 = O=C(O)CN1CCN(CC(=O)O)CCN([C@H](CCC(=O)*)C(=O)O)CCN(CC(=O)O)CC1; Ala(piperidin-4-yl) = O=C([C@H](CC1CCN([*:3])CC1)N[*:1])[*:2]; DOTA = O=C(O)CN1CCN(CC(=O)O)CCN(CC(=O)*)CCN(CC(=O)O)CC1; Trp(5-F) = N[C@@H](Cc1c[nH]c2ccc(F)cc12)C(=O)O; X1 = C[C@@H](c1ccccc1)[C@H](N[*:1])C(=O)[*:2]; γGlu = O=C(O)[C@H](CCC(=O)[*:2])N[*:1]; 1Nal = N[C@@H](Cc1cccc2ccccc12)C(=O)O; Ala(4-THP) = N[C@@H](CC1CCOCC1)C(=O)O; Val(3-OH) = CC(C)(O)[C@H](N)C(=O)O; PEG4 = NCCOCCOCCOCCOCCC(=O)O; Tle = CC(C)(C)[C@H](N)C(=O)O; hLeu = CC(C)CC[C@H](N)C(=O)O

What was measured:
Calu-6 cell line [1] = assay: Cell associated (bound) fraction of [177Lu]Lu-labeled peptide in Calu-6 cells; assay type: cell-based, Human; conditions: 1 hour, 37° C.
Procedure, shortened: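 Detached B7-H3-expressing human lung cancer cells at 5 million/mL were exposed for 1 hour at 37 °C to 0.8 μCi of the 177Lu-labelled peptide, which was formulated in 1% PBSA after labelling at 80 °C, pH ~5. Supernatant and two cold washes counted as unbound, and resuspended cells gamma-counted as the cell-associated fraction.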

human 4lg B7-H3 = biological target: T1, human 4lg B7-H3 (Homo sapiens, UniProt Q5ZPR3); assay: Affinity determination by surface plasmon resonance (SPR) to 4Ig B7-H3; conditions: 4Ig B7-H3, 37° C. flow cell temperature
T1 sequence (Q5ZPR3 29-534): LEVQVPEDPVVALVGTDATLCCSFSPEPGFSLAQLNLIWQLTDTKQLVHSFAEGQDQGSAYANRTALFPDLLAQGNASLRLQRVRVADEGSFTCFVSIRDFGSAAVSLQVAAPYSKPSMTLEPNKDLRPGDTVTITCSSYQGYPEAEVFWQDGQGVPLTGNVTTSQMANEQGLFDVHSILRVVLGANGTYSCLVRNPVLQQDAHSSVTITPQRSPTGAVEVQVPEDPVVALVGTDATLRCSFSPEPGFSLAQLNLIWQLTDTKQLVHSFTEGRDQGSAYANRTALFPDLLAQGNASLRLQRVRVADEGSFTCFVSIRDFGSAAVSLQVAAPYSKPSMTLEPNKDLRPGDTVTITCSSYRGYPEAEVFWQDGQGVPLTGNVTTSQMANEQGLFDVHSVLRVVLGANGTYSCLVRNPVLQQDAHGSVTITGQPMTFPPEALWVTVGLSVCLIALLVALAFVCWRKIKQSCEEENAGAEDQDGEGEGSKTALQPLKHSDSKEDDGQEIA

Calu-6 cell line [2] = assay: Net internalization of [177Lu]Lu-labeled peptide in Calu-6 cells; assay type: cell-based, Human; conditions: 1 hour, 37° C., glycine pH 2.5 acid wash
Procedure, shortened: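 Calu-6 cells, human non-engineered lung cancer expressing B7-H3, resuspended in 1% PBSA at 5 million cells/mL and incubated with the 177Lu-labeled conjugate (labeled at 80 °C, pH ~5, RP-HPLC checked). Gamma counting of the bound fraction, then of the pellet after two glycine pH 2.5 acid strips and NaOH lysis, gives internalized activity.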

Compound | % cell associated fraction (Calu-6 cell line [1]) | Kd (human 4lg B7-H3; read-out: SPR KD—37° C.) [nM] | % net internalization (Calu-6 cell line [2]) | Kd (human 4lg B7-H3; SPR KD—37° C.) [nM]
CC(=O)N[C@@H](CCC(C)C)C(=O)N[C@@H](Cc1ccc(O)cc1)C(=O)N[C@H]1CSSC[C@@H](C(=O)N[C@@H](Cc2c[nH]c3ccc(F)cc23)C(=O)N[C@@H](Cc2ccccc2)C(=O)N[C@H](C(=O)N[C@H](CCCCNC(=O)[C@H](CCC(=O)O)NC(=O)CN2CCN(CC(=O)O)CCN(CC(=O)O)CCN(CC(=O)O)CC2)C(=O)O)C(C)(C)O)NC(=O)[C@H](Cc2ccc(O)cc2)NC(=O)[C@H](C(C)C)NC(=O)[C@H](CC(=O)O)NC(=O)[C@H](CC2CCOCC2)NC(=O)[C@H](CC2CCNCC2)NC(=O)CNC(=O)[C@H](C(C)(C)C)NC1=O [compound 428, Ac-hLeu-Y-C-Tbg-G-PipAla-ThpA-D-V-Y-C-5FW-F-hydroxyVal-dLys(Glu-DOTA)-COOH] (Ac-[hLeu]YC[Tle]G[Ala(piperidin-4-yl)][Ala(4-THP)]DVYC[Trp(5-F)]F[Val(3-OH)][dK]([Glu-DOTA])-OH; disulfide 3-11) | B (25<%≤50) | < 1 | A (%≤25) | –
CC(=O)N[C@@H](CCC(C)C)C(=O)N[C@@H](Cc1ccc(O)cc1)C(=O)N[C@H]1CSSC[C@@H](C(=O)N[C@@H](Cc2c[nH]c3ccc(F)cc23)C(=O)N[C@@H](Cc2ccccc2)C(=O)N[C@H](C(=O)N[C@H](CCCCNC(=O)[C@@H](CCC(=O)O)NC(=O)CN2CCN(CC(=O)O)CCN(CC(=O)O)CCN(CC(=O)O)CC2)C(=O)O)C(C)(C)O)NC(=O)[C@H](Cc2ccc(O)cc2)NC(=O)[C@H](C(C)C)NC(=O)[C@H](CC(=O)O)NC(=O)[C@H](CC2CCOCC2)NC(=O)[C@H](CC2CCNCC2)NC(=O)CNC(=O)[C@H](C(C)(C)C)NC1=O [compound 429, Ac-hLeu-Y-C-Tbg-G-PipAla-ThpA-D-V-Y-C-5FW-F-hydroxyVal-dLys(dGlu-DOTA)-COOH] (Ac-[hLeu]YC[Tle]G[Ala(piperidin-4-yl)][Ala(4-THP)]DVYC[Trp(5-F)]F[Val(3-OH)][dK]([dE-DOTA])-OH; disulfide 3-11) | B (25<%≤50) | < 1 | A (%≤25) | –
CC(=O)N[C@@H](CCC(C)C)C(=O)N[C@@H](Cc1ccc(O)cc1)C(=O)N[C@H]1CSSC[C@@H](C(=O)N[C@@H](Cc2c[nH]c3ccc(F)cc23)C(=O)N[C@H](C(=O)N[C@H](C(=O)N[C@H](CCCCNC(=O)CN2CCN(CC(=O)O)CCN(CC(=O)O)CCN(CC(=O)O)CC2)C(=O)O)C(C)(C)O)[C@@H](C)c2ccccc2)NC(=O)[C@H](Cc2ccc(O)cc2)NC(=O)[C@H](C(C)C)NC(=O)[C@H](CC(=O)O)NC(=O)[C@H](CC2CCOCC2)NC(=O)[C@H](CC2CCNCC2)NC(=O)CNC(=O)[C@H](C(C)(C)C)NC1=O [compound 433, Ac-hLeu-Y-C-Tbg-G-PipAla-ThpA-D-V-Y-C-5FW-[(2S, 3S)beta-Me-Phe]-hydroxyVal-dLys(DOTA)-COOH] (Ac-[hLeu]YC[Tle]G[Ala(piperidin-4-yl)][Ala(4-THP)]DVYC[Trp(5-F)][X1][Val(3-OH)][dK](DOTA)-OH; disulfide 3-11) | C (%>50) | – | B (25<%≤50) | < 1
CC(=O)N[C@@H](CCC(C)C)C(=O)N[C@@H](Cc1ccc(O)cc1)C(=O)N[C@H]1CSSC[C@@H](C(=O)N[C@@H](Cc2cccc3ccccc23)C(=O)N[C@@H](Cc2ccccc2)C(=O)N[C@H](C(=O)N[C@H](CCCCNC(=O)CN2CCN(CC(=O)O)CCN(CC(=O)O)CCN(CC(=O)O)CC2)C(=O)O)C(C)(C)O)NC(=O)[C@H](Cc2ccc(O)cc2)NC(=O)[C@H](C(C)C)NC(=O)[C@H](CC(=O)O)NC(=O)[C@H](CC2CCOCC2)NC(=O)[C@H](CC2CCNCC2)NC(=O)CNC(=O)[C@H](C(C)(C)C)NC1=O [compound 436, Ac-hLeu-Y-C-Tbg-G-PipAla-ThpA-D-V-Y-C-1Nal-F-hydroxyVal-dLys(DOTA)-COOH] (Ac-[hLeu]YC[Tle]G[Ala(piperidin-4-yl)][Ala(4-THP)]DVYC[1Nal]F[Val(3-OH)][dK](DOTA)-OH; disulfide 3-11) | B (25<%≤50) | – | A (%≤25) | < 1
CC(=O)N[C@@H](CCC(C)C)C(=O)N[C@@H](Cc1ccc(O)cc1)C(=O)N[C@H]1CSSC[C@@H](C(=O)N[C@@H](Cc2c[nH]c3ccc(F)cc23)C(=O)N[C@@H](Cc2ccccc2)C(=O)N[C@H](C(=O)N[C@H](CCCCNC(=O)CC[C@H](C(=O)O)N2CCN(CC(=O)O)CCN(CC(=O)O)CCN(CC(=O)O)CC2)C(=O)O)C(C)(C)O)NC(=O)[C@H](Cc2ccc(O)cc2)NC(=O)[C@H](C(C)C)NC(=O)[C@H](CC(=O)O)NC(=O)[C@H](CC2CCOCC2)NC(=O)[C@H](CC2CCNCC2)NC(=O)CNC(=O)[C@H](C(C)(C)C)NC1=O [compound 438, Ac-hLeu-Y-C-Tbg-G-PipAla-ThpA-D-V-Y-C-5FW-F-hydroxyVal-dLys(R-DOTAGA)-COOH] (Ac-[hLeu]YC[Tle]G[Ala(piperidin-4-yl)][Ala(4-THP)]DVYC[Trp(5-F)]F[Val(3-OH)][dK](X4)-OH; disulfide 3-11) | B (25<%≤50) | < 1 | A (%≤25) | –
CC(=O)N[C@@H](CCC(C)C)C(=O)N[C@@H](Cc1ccc(O)cc1)C(=O)N[C@H]1CSSC[C@@H](C(=O)N[C@@H](Cc2c[nH]c3ccc(F)cc23)C(=O)N[C@@H](Cc2ccccc2)C(=O)N[C@H](C(=O)N[C@H](CCCCNC(=O)CC[C@H](NC(=O)CN2CCN(CC(=O)O)CCN(CC(=O)O)CCN(CC(=O)O)CC2)C(=O)O)C(=O)O)C(C)(C)O)NC(=O)[C@H](Cc2ccc(O)cc2)NC(=O)[C@H](C(C)C)NC(=O)[C@H](CC(=O)O)NC(=O)[C@H](CC2CCOCC2)NC(=O)[C@H](CC2CCNCC2)NC(=O)CNC(=O)[C@H](C(C)(C)C)NC1=O [compound 440, Ac-hLeu-Y-C-Tbg-G-PipAla-ThpA-D-V-Y-C-5FW-F-hydroxyVal-dLys(gGlu-DOTA)-COOH] (Ac-[hLeu]YC[Tle]G[Ala(piperidin-4-yl)][Ala(4-THP)]DVYC[Trp(5-F)]F[Val(3-OH)][dK]([γGlu-DOTA])-OH; disulfide 3-11) | B (25<%≤50) | < 1 | A (%≤25) | –
CC(=O)N[C@@H](CCC(C)C)C(=O)N[C@@H](Cc1ccc(O)cc1)C(=O)N[C@H]1CSSC[C@@H](C(=O)N[C@@H](Cc2c[nH]c3ccc(F)cc23)C(=O)N[C@@H](Cc2ccccc2)C(=O)N[C@H](C(=O)N[C@H](CCC(=O)O)C(N)=O)C(C)(C)O)NC(=O)[C@H](Cc2ccc(O)cc2)NC(=O)[C@H](C(C)C)NC(=O)[C@H](CC(=O)O)NC(=O)[C@H](CC2CCN(C(=O)CCOCCOCCOCCOCCNC(=O)CN3CCN(CC(=O)O)CCN(CC(=O)O)CCN(CC(=O)O)CC3)CC2)NC(=O)[C@H](CC2CCNCC2)NC(=O)CNC(=O)[C@H](C(C)(C)C)NC1=O [compound 444, Ac-hLeu-Y-C-Tbg-G-PipAla-Pip(PEG4-DOTA)Ala-D-V-Y-C-5FW-F-hydroxyVal-dGlu-CONH2] (Ac-[hLeu]YC[Tle]G[Ala(piperidin-4-yl)][Ala(piperidin-4-yl)]([PEG4-DOTA])DVYC[Trp(5-F)]F[Val(3-OH)][dE]-NH2; disulfide 3-11) | B (25<%≤50) | < 1 | A (%≤25) | –
CC(=O)N[C@@H](CCC(C)C)C(=O)N[C@@H](Cc1ccc(O)cc1)C(=O)N[C@H]1CSSC[C@@H](C(=O)N[C@@H](Cc2c[nH]c3ccc(F)cc23)C(=O)N[C@@H](Cc2ccccc2)C(=O)N[C@H](C(=O)N[C@H](C)C(=O)O)C(C)(C)O)NC(=O)[C@H](Cc2ccc(O)cc2)NC(=O)[C@H](C(C)C)NC(=O)[C@H](CC(=O)O)NC(=O)[C@H](CC2CCN(C(=O)CCOCCOCCOCCOCCNC(=O)CN3CCN(CC(=O)O)CCN(CC(=O)O)CCN(CC(=O)O)CC3)CC2)NC(=O)[C@H](CC2CCNCC2)NC(=O)CNC(=O)[C@H](C(C)(C)C)NC1=O [compound 455, Ac-hLeu-Y-C-Tbg-G-PipAla-Pip(PEG4-DOTA)Ala-D-V-Y-C-5FW-F-hydroxyVal-dAla-COOH] (Ac-[hLeu]YC[Tle]G[Ala(piperidin-4-yl)][Ala(piperidin-4-yl)]([PEG4-DOTA])DVYC[Trp(5-F)]F[Val(3-OH)][dA]-OH; disulfide 3-11) | C (%>50) | < 1 | B (25<%≤50) | –
